Reference: ChEMBL document CHEMBL1141670, “QSAR analysis of 1,3-diaryl-4,5,6,7-tetrahydro-2H-isoindole derivatives as selective COX-2 inhibitors” (Eur J Med Chem, 2008)

Target: T1, Prostaglandin G/H synthase 2 (Mus musculus, UniProt Q05769)
T1 sequence (Q05769 whole entry): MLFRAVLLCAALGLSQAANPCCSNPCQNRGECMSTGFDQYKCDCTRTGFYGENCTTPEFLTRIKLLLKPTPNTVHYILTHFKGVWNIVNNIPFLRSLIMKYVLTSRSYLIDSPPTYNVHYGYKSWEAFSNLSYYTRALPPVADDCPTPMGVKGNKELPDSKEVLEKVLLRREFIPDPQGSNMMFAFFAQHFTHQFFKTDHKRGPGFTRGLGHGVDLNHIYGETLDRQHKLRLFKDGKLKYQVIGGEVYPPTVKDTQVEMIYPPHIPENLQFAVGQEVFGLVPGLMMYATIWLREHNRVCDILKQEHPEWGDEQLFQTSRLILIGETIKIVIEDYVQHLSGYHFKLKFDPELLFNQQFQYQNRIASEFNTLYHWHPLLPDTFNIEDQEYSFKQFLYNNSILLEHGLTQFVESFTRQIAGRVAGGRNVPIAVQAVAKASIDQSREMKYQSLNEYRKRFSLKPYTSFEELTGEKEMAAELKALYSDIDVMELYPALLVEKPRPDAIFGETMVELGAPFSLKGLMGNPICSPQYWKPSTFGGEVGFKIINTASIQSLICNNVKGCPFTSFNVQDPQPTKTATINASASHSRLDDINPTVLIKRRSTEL
Assay: Inhibition of mouse macrophage COX2

| IC50 [nM] | SMILES |
| --- | --- |
| 1000 | CC1=C(C)Cc2c(c(-c3ccccc3)n(C)c2-c2ccccc2)C1 |
| 10000 | CS(=O)(=O)c1ccc(-c2[nH]c(-c3ccc(S(C)(=O)=O)cc3)c3c2C2CCC3C2)cc1 |
| 16.7 | Cc1ccc(-c2[nH]c(-c3ccc(C)cc3)c3c2CCCC3)cc1 |
